Source: US20070032477A1, “Pteridine derivatives useful for making pharmaceutical compositions” (priority 2003, published 2007)
Where a name gives a salt, the structure may show the parent alone.

Test system: mixed lymphocyte reaction (PBMC with allogeneic PBMC or Eppstein-Barr Virus-transformed human B cells as stimulator cells)
Test: Mixed lymphocyte reaction (MLR) assay
Assay type: cell-based
Details: lowest concentration giving 50% suppression of the MLR; [3H]-thymidine
Procedure: Pteridine derivatives were first dissolved (10 mM) in dimethylsulfoxide (hereinafter referred as DMSO) and further diluted in culture medium before use for the following in vitro experiments. The commercially available culture medium consisted of RPMI-1640+10% foetal calf serum (FCS). Some pteridine derivatives described in the previous examples (as indicated in table 1) were tested in the following mixed lymphocyte reaction (MLR) assay.
Peripheral blood mononuclear cells (hereinafter referred as PBMC) were isolated from heparinized peripheral blood by density gradient centrifugation over Lymphoprep (Nycomed, Maorstua, Norway). Allogeneic PBMC or Eppstein-Barr Virus-transformed human B cells [commercially available under the trade name RPM11788 (ATCC name CCL156)] which strongly express B7-1 and B7-2 antigens were used as stimulator cells after irradiation with 30 Gy. MLR was performed in triplicate wells. After 5 days incubation at 37° C., 1 μCi [^3H]-thymidine was added to each cup. After a further 16 hours incubation, cells were harvested and counted in a […]. Inhibition of proliferation by a compound (drug) described in some of the previous examples was counted using the formula: [formula] wherein cpm is the thymidine count per minute. The MLR assay is regarded by those skilled in the art as an in vitro analogue of the transplant rejection since it is based on the recognition of allogeneic major histocompatibility antigens on the stimulator leukocytes, by responding lymphocytes.

Compound | IC50
2-amino-4-(1-(2-diethylaminoethyl)-piperazino)-6-(3,4-dimethoxyphenyl)pteridine [Example 127] | 9.1 µM
2-amino-4-(1-(2-imidazol-1-yl-ethyl-piperazine)-6-(3,4-dimethoxyphenyl)pteridine [Example 155] | 3.6 µM
2-amino-6-(3,4-dimethoxyphenyl)-4-((tetrahydrofurfuryl)-piperazin-1-yl)pteridine [Example 169] | 0.8 µM
CCC(=O)N1CCN(c2nc(N)nc3ncc(-c4ccc(OC)c(OC)c4)nc23)CC1 [Example 9, 2-amino-4-[(N-propionyl)-piperazin-1-yl]-6-(3,4-dimethoxyphenyl)pteridine] | 0.5 µM
COc1ccc(-c2cnc3nc(N)nc(N4CCN(C(=O)c5ccccc5)CC4)c3n2)cc1OC [Example 11, 2-amino-4-(N-benzoylpiperazin-1-yl)-6-(3,4-dimethoxyphenyl)pteridine] | 0.4 µM
COCC(=O)N1CCN(c2nc(N)nc3ncc(-c4ccc(OC)c(OC)c4)nc23)CC1 [Example 41, 2-amino-4-[(N-methoxyacetyl)-piperazin-1-yl]-6-(3,4-dimethoxyphenyl)pteridine] | 0.5 µM
COc1ccc(-c2cnc3nc(N)nc(N4CCN(C(=O)c5ccoc5)CC4)c3n2)cc1OC [Example 47, 2-amino-4-[N-(3-furoylcarbonyl)-piperazin-1-yl]-6-(3,4-dimethoxyphenyl)pteridine] | 0.3 µM
CC(=O)N1CCN(c2nc(N)nc3ncc(-c4ccccc4)nc23)CC1 [Example 55, 2-amino-4-(N-acetylpiperazin-1-yl)-6-phenyl-pteridine] | 5.1 µM
CC(=O)N1CCN(c2nc(N)nc3ncc(-c4ccc(Cl)cc4)nc23)CC1 [Example 58, 2-amino-4-(N-acetylpiperazin-1-yl)-6-(4-chloro-phenyl)pteridine] | 7.6 µM
COc1ccc(-c2cnc3nc(N)nc(N4CCN(C(=O)NCc5ccccc5)CC4)c3n2)cc1OC [Example 104, 2-amino-4-(N-benzylcarbamoyl-piperazin-1-yl)-6-(3,4-dimethoxyphenyl)pteridine] | 0.018 µM
COc1ccc(-c2cnc3nc(N)nc(N4CCN(C(=O)[C@@H](N)CC(N)=O)CC4)c3n2)cc1OC [Example 111, 2-amino-4-[N-[2-(S),4-diamino-4-oxobutanoyl]-piperazin-1-yl]-6-(3,4-dimethoxyphenyl)pteridine] | 8.8 µM
COCCN1CCN(c2nc(N)nc3ncc(-c4ccc(OC)c(OC)c4)nc23)CC1 [Example 122, 2-amino-4-(1-(2-methoxyethyl)piperazino)-6-(3,4-dimethoxyphenyl)pteridine] | 0.8 µM
COc1ccc(-c2cnc3nc(N)nc(N4CCN(Cc5ccc(F)cc5)CC4)c3n2)cc1OC [Example 138, 2-amino-4-((4-fluorobenzyl)piperazin-1-yl)-6-(3,4-dimethoxyphenyl)pteridine] | 6 µM
COc1ccc(-c2cnc3nc(N)nc(N4CCN(c5cccc(C)c5)CC4)c3n2)cc1OC [Example 175, 2-amino-6-(3,4-dimethoxyphenyl)-4-((3-methylphenyl)-piperazin-1-yl)pteridine] | 0.4 µM
COc1ccc(-c2cnc3nc(N)nc(N4CCN(C(=O)Nc5ccc(C(F)(F)F)cc5)CC4)c3n2)cc1OC [Example 194, 2-amino-4-(N-4-trifluoromethyl-phenyl-carbamoyl-piperazin-1-yl)-6-(3,4-dimethoxyphenyl)pteridine] | 0.052 µM
COc1ccc(-c2cnc3nc(N)nc(N4CCN(C(=O)Nc5ccc(Br)cc5)CC4)c3n2)cc1OC [Example 196, 2-amino-4-(N-4-bromo-phenyl-carbamoyl-piperazin-1-yl)-6-(3,4-dimethoxyphenyl)pteridine] | 0.1 µM
COc1ccc(-c2cnc3nc(N)nc(N4CCN(C(=O)Nc5cccc(I)c5)CC4)c3n2)cc1OC [Example 197, 2-amino-4-(N-3-iodo-phenyl-carbamoyl-piperazin-1-yl)-6-(3,4-dimethoxyphenyl)pteridine] | 0.04 µM
COc1cc(-c2cnc3nc(N)nc(N4CCN(c5ccc(C)cc5)CC4)c3n2)ccc1OC(C)C [Example 208] | 4.4 µM

Test system: production of TNF-α by PBMC in response to stimulation by LPS
Test: TNF-α assay
Assay type: cell-based, human
Details: Homo sapiens, LPS 1 μg/ml, 72 hours, sandwich ELISA
Procedure: Peripheral blood mononuclear cells (herein referred as PBMC), in response to stimulation by lipopolysaccharide (hereinafter LPS), a gram-negative bacterial endotoxin, produce various […], in particular human TNF-α. Inhibition of the activation of PBMC can therefore be measured by the level of suppression of the production of TNF-α by PBMC in response to stimulation by LPS.
Such inhibition measurement was performed as follows: PBMC were isolated from heparinized peripheral blood by density gradient centrifugation over Lymphoprep (commercially available from Nycomed, Norway). LPS was then added to the PMBC suspension in complete medium (10^6 cells/ml) at a final concentration of 1 μg/ml. The pteridine derivative to be tested was added at different concentrations (0.1 μM, 1 μM and 10 μM) and the cells were incubated at 37° C. for 72 hours in 5% CO2. The supernatants were collected, then TNF-α concentrations were measured with respectively an anti-TNF-α antibody in a sandwich ELISA (Duo Set ELISA human TNFα, commercially available from R&D Systems, United Kingdom). The calorimetric reading of the ELISA was measured by a Multiskan RC plate reader (commercially available from ThermoLabsystems, Finland) at 450 nm (reference wavelength: 690 nm). Data analysis was performed with Ascent software 2.6. (also from ThermoLabsystems, Finland): a standard curve (recombinant human TNFα) was drawn and the amount (pg/ml) of each sample on the standard curve was determined.
The % suppression of human TNFα production by the pteridine derivatives of the invention (drugs) was calculated using the formula: [formula]

Compound | IC50
COc1ccc(-c2cnc3nc(N)nc(N4CCN(CCN(C)C)CC4)c3n2)cc1OC [Example 181, 2-amino-6-(3,4-dimethoxyphenyl)-4-(4-(2-dimethylaminoethyl)-piperazin-1-yl)-pteridine trihydrochloride salt] | 8.8 µM
COc1ccc(-c2cnc3nc(N)nc(N4CCN(CCCN(C)C)CC4)c3n2)cc1OC [Example 182, 2-amino-6-(3,4-dimethoxyphenyl)-4-(4-(3-dimethylaminopropyl)-piperazin-1-yl)pteridine trihydrochloride salt] | 4.8 µM

Same assay, conditions: LPS 1 μg/ml, 72 hours, sandwich ELISA

Compound | IC50
2-amino-4-(1-(2-diethylaminoethyl)-piperazino)-6-(3,4-dimethoxyphenyl)pteridine [Example 127] | 2.6 µM
2-amino-6-(3,4-dimethoxyphenyl)-4-((tetrahydrofurfuryl)-piperazin-1-yl)pteridine [Example 169] | 0.3 µM
COc1ccc(-c2cnc3nc(N)nc(N4CCN(C(C)=O)CC4)c3n2)cc1OC [Example 8, 2-amino-4-(N-acetylpiperazin-1-yl)-6-(3,4-dimethoxyphenyl)pteridine] | 0.4 µM
CCC(=O)N1CCN(c2nc(N)nc3ncc(-c4ccc(OC)c(OC)c4)nc23)CC1 [Example 9, 2-amino-4-[(N-propionyl)-piperazin-1-yl]-6-(3,4-dimethoxyphenyl)pteridine] | 0.14 µM
COc1ccc(-c2cnc3nc(N)nc(N4CCN(C(=O)c5ccccc5)CC4)c3n2)cc1OC [Example 11, 2-amino-4-(N-benzoylpiperazin-1-yl)-6-(3,4-dimethoxyphenyl)pteridine] | 0.4 µM
COc1ccc(-c2cnc3nc(N)nc(N4CCN(C(=O)c5cc(F)c(Cl)nc5Cl)CC4)c3n2)cc1OC [Example 40] | 0.7 µM
COc1ccc(-c2cnc3nc(N)nc(N4CCN(C(=O)[C@@H]5CCCN5)CC4)c3n2)cc1OC [Example 62, 2-amino-4-[N-(pyrrolidin-2-(S)-yl)carbonyl-piperazin-1-yl]-6-(3,4-dimethoxy-phenyl)pteridine] | 7.6 µM
COC(=O)c1ccc(C(=O)N2CCN(c3nc(N)nc4ncc(-c5ccc(OC)c(OC)c5)nc34)CC2)cc1 [Example 112, 2-amino-4-[N-[4-(methoxycarbonyl)benzoyl]-piperazin-1-yl]-6-(3,4-dimethoxy-phenyl)pteridine] | 0.28 µM
COc1ccc(-c2cnc3nc(N)nc(N4CCN(C(=O)CN(C)C)CC4)c3n2)cc1OC [Example 113, 2-amino-4-[N-[4-(dimethylamino)acetyl]-piperazin-1-yl]-6-(3,4-dimethoxy-phenyl)pteridine] | 3.2 µM
CCN(C(=O)N1CCN(c2nc(N)nc3ncc(-c4ccc(OC)c(OC)c4)nc23)CC1)c1ccccc1 [Example 118, 2-amino-4-(N-ethyl-N-phenyl-carbamoyl-piperazin-1-yl)-6-(3,4-dimethoxyphenyl)pteridine] | 0.07 µM
CCOC(=O)CN1CCN(c2nc(N)nc3ncc(-c4ccc(OC)c(OC)c4)nc23)CC1 [Example 135, 2-amino-4-(2-(piperazin-1-yl)-acetic acid ethyl ester)-6-(3,4-dimethoxyphenyl)pteridine] | 0.27 µM
COc1ccc(-c2cnc3nc(N)nc(N4CCN(Cc5ccc(C)cc5)CC4)c3n2)cc1OC [Example 140, 2-amino-4-((4-methylbenzyl)piperazin-1-yl)-6-(3,4-dimethoxyphenyl)pteridine] | 1.3 µM
COc1ccc(-c2cnc3nc(N)nc(N4CCN(Cc5ccc6c(c5)OCO6)CC4)c3n2)cc1OC [Example 143, 2-amino-4-(piperonyl-piperazin-1-yl)-6-(3,4-dimethoxyphenyl)pteridine] | 0.8 µM
COc1ccc(-c2cnc3nc(N)nc(N4CCN(Cc5cccnc5)CC4)c3n2)cc1OC [Example 156] | 0.4 µM
COc1ccc(-c2cnc3nc(N)nc(N4CCN(CC5OCCO5)CC4)c3n2)cc1OC [Example 170, 2-amino-6-(3,4-dimethoxyphenyl)-4-(1,3-dioxolan-2-yl-methylpiperazin-1-yl)pteridine] | 0.4 µM
